Converted amounts (≈) assume the structure as drawn. Read-outs that look alike come from different tables or passages of the source. Residues, ends and D or L forms follow the SMILES beside them. *: point of attachment. Cbz = O=C(OCc1ccccc1)*; CH2F = FC*
Legend:
HCT116 = assay: MTT cell proliferation assay, HCT116; format: cell-based, human; settings: for IC50: Homo sapiens, HCT-116, HCT116 colon cancer, 48 h
Experimental: (§1) The effects of the synthesized amide anthraquinone derivatives on the proliferative activity of eight human cancerous cell lines (EC9706, MCF-7, SGC-7901, HepG2, QBC939, HeLa, HCT116 and SW480) in addition to two normal human cell lines (colorectal FHC and liver HL7702) were evaluated using the standard MTT assay.
(§2) The human esophageal cancer cell line EC9706 was obtained from Cancer Hospital and Institute by Prof. Ming Rong Wang, Chinese Academy Medical of Sciences. The human colorectal carcinoma cell lines HCT116 and SW480, hepatoma cell line HepG2, cervical carcinoma cell line HeLa, breast cancer cell line MCF-7, gastric cancer cell line SGC-7901, cholangiocarcinoma cell line QBC939, normal fetal colon cell line FHC and liver cell line HL-7702 were obtained from the Cell Bank of the Shanghai Chinese Academy of Sciences. All cells were cultured in RPMI 1640 medium containing 100 U/mL penicillin and streptomycin and 10% fetal bovine serum and maintained at 37°C under a 5% CO2 atmosphere.
(§3) We analyzed the inhibitory effects of eight anthraquinone-amino acid derivatives on the proliferation of eight tumor cell lines and two normal cell lines in vitro using MTT assays. Cells were added to a 96-well plate with (5,000 cells per well in 100 µL RPMI-1640 medium). Cells were treated with different concentrations (10–100 μg/mL) of 8a–8h for 48 h and then incubated with 20 μL MTT (5 mg/mL) for another 4 h at 37°C. DMSO (150 μL) was then added to each well to dissolve the formazan crystals. The absorbance of each well was read at 490 nm on a microtiter plate ELISA reader. The mean values were obtained from a minimum of three parallel experiments. IC50 values were calculated.

MCF-7 = assay: MTT cell proliferation assay, MCF-7; format: cell-based; settings: Homo sapiens, MCF7, MCF-7 breast cancer, 48 h
Experimental: as §1, §2, §3

EC9708 = assay: MTT cell proliferation assay, EC9706 (Table 1: EC9708); format: cell-based; settings: Homo sapiens, EC9708 esophageal cancer, 48 h
Experimental: as §1, §2, §3

QBC939 = assay: MTT cell proliferation assay, QBC939; format: cell-based; settings: Homo sapiens, QBC939 cholangiocarcinoma, 48 h
Experimental: as §1, §2, §3

SGC-7901 = assay: MTT cell proliferation assay, SGC-7901; format: cell-based, human; settings: SGC-7901 gastric cancer
Experimental: as §1, §2, §3

HeLa = assay: MTT cell proliferation assay, HeLa; format: cell-based; settings: Homo sapiens, HeLa cervical cancer, 48 h
Experimental: as §1, §2, §3

SW480 = assay: MTT cell proliferation assay, SW480; format: cell-based; settings: Homo sapiens, SW480 colon cancer, 48 h
Experimental: as §1, §2, §3

HepG2 = assay: MTT cell proliferation assay, HepG2; format: cell-based; settings: Homo sapiens, HepG2 liver cancer, 48 h
Experimental: as §1, §2, §3

HL-7702 = assay: MTT cell proliferation assay, normal liver cells HL-7702; format: cell-based; settings: L02, HL-7702 normal human hepatocyte, 48 h
Experimental: as §1, §2, §3

FHC = assay: MTT cell proliferation assay, normal colorectal cells FHC; format: cell-based; settings: FHC normal human colorectal mucosa, 48 h
Experimental: as §1, §2, §3

[1] = design: method as in PMID 27111664, PMID 28811348; settings: background statement, no own measurement; cited from earlier work
[2] = design: method as in PMID 24096626; settings: on entering the bloodstream; cited from earlier work
[3] = design: method as in earlier work; settings: cell line not given; compared with 8b 27.87 μg/mL; cited from earlier work
HCT116 cells = assay: MTT cell viability with or without zVAD-FMK; format: cell-based, human; settings: zVAD-FMK 5 mM alone, 24 h
Text: Caspases represent a key molecular group in the regulation of apoptosis. In caspases, there is an upstream and downstream relationship between the initiator of apoptosis and executioner. Caspase 3 is one of the key executers of apoptosis, as it is either partially or totally responsible for the proteolytic cleavage of many key proteins. For example, when caspase 9 is activated, it activates caspase 3, which ultimately triggers cell apoptosis. After detecting the expression of the corresponding Bcl-2 family proteins after 8a treatment by western blotting, we went on to detect the expression levels of PARP, caspase 9, cleaved caspase 9, caspase 3, and cleaved caspase 3 proteins. […] After 24 h of treatment with zVAD-FMK, cell viability is 93%.
Figure 7 Effect of 8a on apoptosis-related protein expression. […] PARP, caspase 3, cleaved caspase 3, caspase 9, cleaved caspase 9, Bcl-2, phosphorylated Bcl-2, Bcl-XL, phosphorylated Bcl-xL and Bax were detected by western blot analysis; β-actin was used as a loading control in each lane. Representative data of three independent experiments are shown; (C) and (D) Grayscale analysis of the relative expression of apoptosis-related proteins detected by Western blotting. […] (E) Cells were exposed to 8a (20 μg/mL) and/or zVAD-FMK ([…]) for 24 h, and cell viability was measured by MTT assay. […]

[4] = Homo sapiens, SGC-7901, 48 h, read-out: IC50

SMILES | IC50 (HCT116) [µg/mL] | IC50 (MCF-7) [µg/mL] | IC50 (SGC-7901; [4]) [µg/mL] | IC50 (HeLa) [µg/mL] | IC50 (SW480) [µg/mL] | IC50 (HepG2) [µg/mL] | melting point [°C] | IC50 (SGC-7901; 48 h) [µg/mL] | IC50 (EC9708) [µg/mL] | IC50 (QBC939) [µg/mL] | IC50 (HL-7702) [µg/mL] | IC50 (FHC) [µg/mL] | proliferation of HCT116 cells (in words) (HCT116) | water solubility [1] | fraction bound to plasma proteins [2] [%] | IC50 [3] [µg/mL] | cell viability (HCT116 cells) [%]
Cc1cc(O)c2c(c1)C(=O)c1cc(O)cc(O)c1C2=O [Emodin, emodin] |  |  |  |  |  |  |  |  |  |  |  |  |  | poor |  |  | 
O=C1c2c(O)ccc(O)c2C(=O)c2c(NCCNCCO)ccc(NCCNCCO)c21 [MX, mitoxantrone] |  |  |  |  |  |  |  |  |  |  |  |  |  |  | > 95 |  | 
CC(C)C(NC(=O)c1cc(O)c2c(c1)C(=O)c1cccc(O)c1C2=O)C(=O)O (stereo not shown) [rhein valine] |  |  |  |  |  |  |  |  |  |  |  |  |  |  |  | 33.51 (≈ 87.4 µM) | 
COC(=O)C[C@H](NC(=O)[C@H](C)NC(=O)[C@@H](NC(=O)OCc1ccccc1)C(C)C)C(=O)CF [zVAD-FMK, reference compound] (Cbz-Val-Ala-Asp(OMe)-CH2F) |  |  |  |  |  |  |  |  |  |  |  |  |  |  |  |  | 93

Continued, in another order:

IC50 (HCT116) [µg/mL] | IC50 (MCF-7) [µg/mL] | IC50 (SGC-7901; [4]) [µg/mL] | IC50 (HeLa) [µg/mL] | IC50 (SW480) [µg/mL] | IC50 (HepG2) [µg/mL] | melting point [°C] | IC50 (SGC-7901; 48 h) [µg/mL] | SMILES | IC50 (EC9708) [µg/mL] | IC50 (QBC939) [µg/mL] | IC50 (HL-7702) [µg/mL] | IC50 (FHC) [µg/mL] | proliferation of HCT116 cells (in words) (HCT116) | water solubility [1] | fraction bound to plasma proteins [2] [%] | IC50 [3] [µg/mL] | cell viability (HCT116 cells) [%]
21 ± 0.38 (≈ 53 µM) | 30.81 ± 0.05 (≈ 77.7 µM) | 67.98 ± 0.18 (≈ 172 µM) | 27.87 ± 0.22 (≈ 70.3 µM) | 42.4 ± 0.68 (≈ 107 µM) | 44 ± 0.53 (≈ 111 µM) |  |  | CC(C)C(NC(=O)c1ccc2c(c1[N+](=O)[O-])C(=O)c1ccccc1C2=O)C(=O)O (stereo not shown) [Compound 8b, 1-nitro-2-acyl-anthraquinone valine] | 38.94 ± 0.02 (≈ 98.2 µM) | 72.88 ± 0.16 (≈ 184 µM) | > 1000 | > 1000 |  |  |  |  | 
30.12 ± 0.02 (≈ 67.8 µM) | 28.26 ± 0.13 (≈ 63.6 µM) | 61.6 ± 0.14 (≈ 139 µM) | 25.94 ± 0.22 (≈ 58.4 µM) | 39.5 ± 0.31 (≈ 88.9 µM) | 58.34 ± 0.22 (≈ 131 µM) | > 250 |  | O=C1c2ccccc2C(=O)c2c1ccc(C(=O)NC(Cc1ccccc1)C(=O)O)c2[N+](=O)[O-] (stereo not shown) [Compound 8c] | 30.24 ± 0.23 (≈ 68 µM) | 34.2 ± 0.42 (≈ 77.1 µM) | > 1000 | > 1000 |  |  |  |  | 
27.75 ± 0.11 (≈ 78.3 µM) | 26.87 ± 0.06 (≈ 75.8 µM) | 60.83 ± 0.12 (≈ 172 µM) | 28.7 ± 0.17 (≈ 81 µM) | 43.08 ± 0.05 (≈ 122 µM) | 40.11 ± 0.02 (≈ 113 µM) |  |  | O=C(O)CNC(=O)c1ccc2c(c1[N+](=O)[O-])C(=O)c1ccccc1C2=O [Compound 8d] | 41.47 ± 0.14 (≈ 117 µM) | 36.71 ± 0.04 (≈ 104 µM) | > 1000 | > 1000 |  |  |  |  | 
35.03 ± 0.25 (≈ 88.8 µM) | 31.31 ± 0.13 (≈ 79.4 µM) | 60.5 (≈ 153 µM) | 48.82 ± 0.13 (≈ 124 µM) | 60.49 ± 0.07 (≈ 153 µM) | 49.07 ± 0.08 (≈ 124 µM) |  | 72.31 ± 0.33 (≈ 183 µM) | O=C1c2ccccc2C(=O)c2c1ccc(C(=O)N1CCCC1C(=O)O)c2[N+](=O)[O-] (stereo not shown) [Compound 8e] | 47.35 ± 0.21 (≈ 120 µM) | 37.73 ± 0.23 (≈ 95.7 µM) | > 1000 | > 1000 |  |  |  |  | 
98.43 ± 0.13 (≈ 267 µM) | 342.19 ± 0.22 (≈ 929 µM) | 165.3 ± 0.21 (≈ 449 µM) | 241.31 ± 0.13 (≈ 655 µM) | 155.38 ± 0.14 (≈ 422 µM) | 296.42 ± 0.21 (≈ 805 µM) |  |  | CC(NC(=O)c1ccc2c(c1[N+](=O)[O-])C(=O)c1ccccc1C2=O)C(=O)O (stereo not shown) [Compound 8f] | 257.31 ± 0.2 (≈ 699 µM) | 357.52 ± 0.08 (≈ 971 µM) | > 1000 | > 1000 | significantly inhibited |  |  |  | 
86.49 ± 0.02 (≈ 202 µM) | 275.52 ± 0.07 (≈ 643 µM) | 235.81 ± 0.02 (≈ 550 µM) | 122.52 ± 0.05 (≈ 286 µM) | 158.37 ± 0.04 (≈ 370 µM) | 520.52 ± 0.22 (≈ 1210 µM) |  |  | CSCCC(NC(=O)c1ccc2c(c1[N+](=O)[O-])C(=O)c1ccccc1C2=O)C(=O)O (stereo not shown) [Compound 8g] | 300.18 ± 0.11 (≈ 701 µM) | 290.94 ± 0.05 (≈ 679 µM) | > 1000 | > 1000 | significantly inhibited |  |  |  | 
100.38 ± 0.04 (≈ 235 µM) | 546.68 ± 0.31 (≈ 1280 µM) | 200.35 ± 0.05 (≈ 470 µM) | 334.28 ± 0.04 (≈ 784 µM) | 119.93 ± 0.03 (≈ 281 µM) | 467.74 ± 0.06 (≈ 1100 µM) |  |  | O=C(O)CCC(NC(=O)c1ccc2c(c1[N+](=O)[O-])C(=O)c1ccccc1C2=O)C(=O)O (stereo not shown) [Compound 8h] | 112.41 ± 0.03 (≈ 264 µM) | 112.02 ± 0.03 (≈ 263 µM) | > 1000 | > 1000 | significantly inhibited |  |  |  | 

From PMC7180728, “Novel Anthraquinone Compounds Inhibit Colon Cancer Cell Proliferation via the Reactive Oxygen Species/JNK Pathway” (Molecules, 2020)
